“Also recorded” adds a separate entry of the source.
What was measured:
NMB-R = target: T1, NMB-R (Rattus norvegicus, UniProt P24053); assay: Competition with 125I-NMB for NMB-R in C6 cells (linker specificity); format: binding, rodent; conditions: for receptor subtype preference (GRP-R vs NMB-R): from IC50 with 125I-NMB (C6) and 125I-BBN (PC3), cut off 10x the IC50 of [Tyr4]-BBN;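 for all read-outs here: test cells: rodent glioblastoma C6 line carrying NMB-R, human prostate cancer PC3 line carrying GRP-R, affinity fitted by one-site competition nonlinear regression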
T1 construct: C6, an NMB-R expressing rodent glioblastoma cell line; host or cells: C6 glioblastoma cells, intact adherent cells
T1 sequence (P24053 1-390): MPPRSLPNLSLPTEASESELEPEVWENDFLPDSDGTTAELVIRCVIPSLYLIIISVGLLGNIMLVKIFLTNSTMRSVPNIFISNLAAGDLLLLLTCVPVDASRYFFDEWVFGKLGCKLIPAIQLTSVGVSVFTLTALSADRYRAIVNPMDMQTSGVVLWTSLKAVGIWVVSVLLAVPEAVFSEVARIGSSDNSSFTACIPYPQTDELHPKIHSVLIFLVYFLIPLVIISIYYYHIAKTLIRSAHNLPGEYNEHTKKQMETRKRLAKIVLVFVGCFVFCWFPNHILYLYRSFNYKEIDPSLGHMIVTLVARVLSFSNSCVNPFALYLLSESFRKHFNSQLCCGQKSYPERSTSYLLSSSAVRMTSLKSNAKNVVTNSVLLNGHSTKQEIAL
Description: Two cell lines, C6, an NMB-R expressing rodent glioblastoma cell line and PC3, a GRP-R expressing human prostate cancer cell line, were used in this assay. The affinity of various unlabeled compounds for each receptor subtype (NMB-R and GRP-R) was determined indirectly by measuring its ability to compete with the binding of ^125I-NMB or ^125I-BBN to its corresponding receptors in C6 and PC3 cells.
Cells for the assays were plated at a concentration of 9.6×10^4/well in 48 well poly-lysine coated plates (Beckton Dickinson Biocoat). PC3 were obtained from ATCC(CRL-1435) and cultured in RPMI 1640 (ATCC) supplemented with 2 mM L-glutamine, 1.5 g/L Sodium bicarbonate, 10 mM HEPES and 10% FBS. […] PC3 cells for the assays were plated at a concentration of 2.0×10^4 cells/well in 96-well white/clear bottom plates (Falcon Optilux-I). Plates were used for the assays on day 2 of the post-plating.
RPMI 1640 (ATCC) containing 25 mM HEPES, 0.2% BSA fraction V, 1.0 mM AEBSF (CAS # 3087-99-7) and 0.1% Bacitracin (CAS # 1405-87-4), pH 7.4. Custom made ^125I-[Tyr^0]NMB, >2.0 Ci/μmole (Amersham Life Science) [^125I-NMB] and commercially available ^125I-[Tyr^4]BBN, >2.0 Ci/μmole (Perkin Elmer Life Science) [^125I-BBN] were used as radioligands.
Using a 48-well plate assay system (for C6 study) competition experiments were performed using ^125I-NMB. […] Selection of compounds for the assay was based on linker subtype.
The binding parameters obtained from the studies were analyzed using a one-site competition non-linear regression analysis with GraphPad Prism. The relative affinity of various compounds for NMB-R in C6 cells were compared with those obtained using commercially available [Tyr^4]-BBN and [Tyr^0]-NMB. To distinguish the GRP-R preferring compounds from NMB-R plus GRP-R preferring compounds, IC50 values obtained for each compound were compared with those obtained from [Tyr^4-BBN with ^125I-NMB on C6 cells.

[1] = tested on: BT-474 human breast cancer cells; assay: Effect of drug treatment on GRP receptor binding (177Lu-AMBA) in BT-474 cells; format: cell-based; conditions: for change in GRP receptor specific signal per cell (177Lu-AMBA binding): drug 0.1-1.0 μM (gefitinib 0.1-10 μM); for change in 177Lu-AMBA uptake (GRP-R) on a viable cell basis, BT-474: ↑ increase, ↓ decrease vs untreated; for decrease in 177Lu-AMBA binding (GRP receptor specific signal per cell): drug 0.1-1.0 μM (4-OH Tamoxifen 0.001-0.1 μM)
Description: BT-474 breast cancer cells (human primary invasive ductal carcinoma; ER+, PR+, amplified HER2/neu+) were obtained from the American Type Culture Collection. The growth medium for BT-474 cells is Hybri-care Medium (Cat No: 46X, ATCC) supplemented with 10% heat inactivated FBS (Hyclone, SH30070.03), 0.2% NaHCO3, and antibiotic/antimycotic “PSF-1×” (GibcoBRL, 15240-062) for a final concentration of penicillin-streptomycin (1×, 100 units/mL), and fungizone (0.25 μg/mL). […] Cells for binding experiments were plated on Day 0 at 5.6×10^4 cells/cm^2 in 96-well white/clear bottom microtiter plates (Falcon Optilux-I), or 96 well black/clear collagen I cellware plates (Beckton Dickinson Biocoat).
(§1) RPMI 1640 supplemented with 20 mM HEPES, 0.1% BSA (w/v), 0.5 mM PMSF (AEBSF), bacitracin (50 mg/500 ml), pH 7.4.
(§2) Incubations were stopped by the addition of 200 μL of ice-cold binding buffer. Plates were washed three more times with binding buffer, 140 μL of scintillation fluid was added to each well, the plates were sealed and analyzed on a Microβ plate reader (Microbeta Trilux, Perkin-Elmer).
Treatment: BT-474 cells were plated on Day 0 and treated on Days 1 and 2 (DT1, DT2).

[2] = tested on: PC-3 prostate cancer cells; assay: Effect of drug treatment on GRP receptor binding (177Lu-AMBA) in PC-3 cells; format: cell-based, human; conditions: for decrease in 177Lu-AMBA binding (GRP receptor specific signal per cell) / increase in 177Lu-AMBA binding (GRP receptor specific signal per cell): relative to untreated control; for decrease in 177Lu-AMBA binding (GRP receptor specific signal per cell): drug 0.1-1.0 μM (gefitinib 0.1-10 μM)
Description: as §1, §2
PC-3 (human prostate adenocarcinoma, bone metastasis, AR-, ER) were obtained from the American Type Culture Collection. The growth medium for PC-3 cells is RPMI 1640 (10-041-CM, Mediatech, Inc), supplemented with 10% heat inactivated FBS (Hyclone, SH30070.03) and PSF-1× (as in Example LXVI). The binding buffer, lapatinib solutions, treatment method and cell binding assay is the same as in Example LXVI.

[3] = tested on: T47D human breast cancer cells; assay: Effect of drug treatment on GRP receptor binding (177Lu-AMBA) in T47D cells; format: cell-based; conditions: for decrease in 177Lu-AMBA binding (GRP receptor specific signal per cell) / increase in 177Lu-AMBA binding (GRP receptor specific signal per cell): relative to untreated control; for decrease in 177Lu-AMBA binding (GRP receptor specific signal per cell): drug 0.1-1.0 μM (4-OH Tamoxifen 0.001-0.1 μM); for increase in 177Lu-AMBA binding (GRP receptor specific signal per cell): drug 0.1-1.0 μM (gefitinib 0.1-10 μM)
Text: T-47D breast cancer cells (human metastatic mammary gland ductal adenocarcinoma isolated from pleural effusion, ER+, PR+) were obtained from the American Type Culture Collection.

[4] = tested on: PC-3 prostate cancer cells; assay: Effect of dasatinib on GRP receptor binding, proliferation and glucose uptake in PC-3 cells (single plate assay); format: cell-based, human; conditions: for % Change in 2-NBDG uptake / % change in 177Lu-AMBA uptake / % Change in Proliferation / 177Lu-AMBA uptake (Bmax fmoles/million cells): PC3 cells; for % Change in Proliferation: N = 4; for 177Lu-AMBA uptake (Bmax fmoles/million cells): control 266 (±23)
Description: The cells were plated on Day 0 (7.5 k/well 96-well PE Scintiplate). […] To determine the cell numbers and the proliferation, 100 uL of 10% CCK—F solution in DPBS (Molecular technologies) was added to the same plate, incubated for 30 min at 37° C. and the relative fluorescence (RFU) measured at 535 nm. Base on the cell numbers and the ^177Lu-binding, the Bmax (fmoles bound/million cells) was calculated, and the results compared with the control.
For the glucose uptake study, a fluorescently labeled 2-deoxyglucose derivative (2-NBDG) was used. After the dasatinib treatment as described above, the cells were incubated with 2-NBDG (200 uM) in binding buffer for 2 h at 37° C. and measured RFU at 530 nm. The cell numbers were determined using CCK—F as described above. Based on the cell numbers Bmax for glucose uptake was determined and compared with the control.

[5] = BT-474, relative to untreated control
[6] = drug 0.1-1.0 μM, ↑ increase, ↓ decrease vs untreated

“N-[(3β,5β,12α)-3-[[[4,7,10-Tris(carboxymethyl)-1,4,7,10-tetraazacyclododec-1-yl]acetyl]amino]-4-aminobenzoyl-glycyl-L-glutaminyl-L-tryptophyl-L-alanyl-L-valyl-glycyl-L-histidyl-L-leucyl-L-methioninamide [Compound L204]” was tested, and the “receptor subtype preference (GRP-R vs NMB-R)” value (NMB-R) was “selective affinity to NMB-R; also recorded: favor the NMB subtype” and the “receptor preference in words (GRP-R / GRP-R and NMB-R)” value (NMB-R; wrapped cell: 'No selective preference' or 'preference for NMB-R') was “preference for NMB-R”.

For “N-[(3β,5β,12α)-3-[[[4,7,10-Tris(carboxymethyl)-1,4,7,10-tetraazacyclododec-1-yl]acetyl]amino]-glycyl-4-aminobenzoyl-L-leucyl-L-tryptophyl-L-alanyl-L-threonyll-glycyl-L-histidyl-L-phenylalanyl-L-methioninamide [Compound L227]”, the “receptor subtype preference (GRP-R vs NMB-R)” value (NMB-R) was “affinity to GRP-R in addition to its inherent NMB-R affinity”.

For anastrozole, the “change in GRP receptor specific signal per cell (177Lu-AMBA binding)” value (“change … per cell (177Lu-AMBA binding)” below) ([1]; BT-474) was “no change”, the “change in 177Lu-AMBA uptake (GRP-R) on a viable cell basis, BT-474” value (“change in 177Lu-AMBA uptake (GRP-R) … BT-474” for short) ([1]; drug 0.1-1.0 μM) was “NC (NC: Little(<10%) or no change in Lu-AMBA uptake)” and the “decrease in 177Lu-AMBA binding (GRP receptor specific signal per cell)” value ([2]; PC-3) was “up to 10%”. For the same substance, the “decrease in 177Lu-AMBA binding (GRP receptor specific signal per cell)” value ([3]; T-47D) was “up to 10%”.

bortezomib was tested, and the “decrease in 177Lu-AMBA binding (GRP receptor specific signal per cell)” value [1, 5] was “up to 50%”, the “decrease in 177Lu-AMBA binding (GRP receptor specific signal per cell)” value ([2]; PC-3) was “up to 60%” and the “decrease in 177Lu-AMBA binding (GRP receptor specific signal per cell)” value ([3]; T-47D) was “up to 50%”.

In the case of dasatinib, the “decrease in 177Lu-AMBA binding (GRP receptor specific signal per cell)” value [1, 5] is reported as 10-15%, the “increase in 177Lu-AMBA binding (GRP receptor specific signal per cell)” value ([2]; PC-3, drug 0.1-1.0 μM) is reported as “up to 250%” and the “increase in 177Lu-AMBA binding (GRP receptor specific signal per cell)” value ([3]; T-47D) is reported as “up to 500%”. The “% Change in 2-NBDG uptake” value ([4]; Dasatinib 1 nM) was −4.3 (±4.6) %, the “% change in 177Lu-AMBA uptake” value ([4]; Dasatinib 1 nM) was 12.3 (±5.8) % and the “% Change in Proliferation” value ([4]; Dasatinib 1 nM) was −4.3 (±1.0) %. The “177Lu-AMBA uptake (Bmax fmoles/million cells)” value ([4]; Dasatinib 1 nM) was 300 (±40) fmoles/million cells, the “% Change in 2-NBDG uptake” value ([4]; Dasatinib 10 nM) was −62.9 (±7.1) % and the “% change in 177Lu-AMBA uptake” value ([4]; Dasatinib 10 nM) was 45.4 (±8.1) %. For the same substance, the “% Change in Proliferation” value ([4]; Dasatinib 10 nM) was −11.2 (±5.9) %, the “177Lu-AMBA uptake (Bmax fmoles/million cells)” value ([4]; Dasatinib 10 nM) was 387 (±46) fmoles/million cells and the “% Change in 2-NBDG uptake” value ([4]; Dasatinib 100 nM) was −67.8 (±15.8) %. For the same substance, the “% change in 177Lu-AMBA uptake” value ([4]; Dasatinib 100 nM) was 76.7 (±5.0) %, the “% Change in Proliferation” value ([4]; Dasatinib 100 nM) was −33.3 (±11.4) % and the “177Lu-AMBA uptake (Bmax fmoles/million cells)” value ([4]; Dasatinib 100 nM) was 470 (±51) fmoles/million cells. For the same substance, the “177Lu-AMBA uptake, average Bmax” value ([4]; PC-3, 100 nM) was at most 470 fmoles/million cells, the “decrease of glucose uptake (2-NBDG)” value ([4]; PC-3, 100 nM) was at most 67.8% and the “inhibition of growth (cell proliferation)” value ([4]; PC-3, 100 nM) was at most 33%.

With erlotinib the “change … per cell (177Lu-AMBA binding)” value ([1]; BT-474) was “no change”, the “change in 177Lu-AMBA uptake (GRP-R) … BT-474” value ([1]; drug 0.1-1.0 μM) was “NC (NC: Little(<10%) or no change in Lu-AMBA uptake)” and the “decrease in 177Lu-AMBA binding (GRP receptor specific signal per cell)” value ([2]; PC-3) was 5-20%. The “increase in 177Lu-AMBA binding (GRP receptor specific signal per cell)” value ([3]; T-47D) was 5-20%.

For gefitinib, the “change … per cell (177Lu-AMBA binding)” value ([1]; BT-474) was “no change”, the “change in 177Lu-AMBA uptake (GRP-R) … BT-474” value ([1]; drug 0.1-10 μM) was “NC (NC: Little(<10%) or no change in Lu-AMBA uptake)” and the “decrease in 177Lu-AMBA binding (GRP receptor specific signal per cell)” value ([2]; PC-3) was 20-40%. For the same substance, the “increase in 177Lu-AMBA binding (GRP receptor specific signal per cell)” value ([3]; T-47D) was “up to 20%”.

For imatinib, the “change … per cell (177Lu-AMBA binding)” value ([1]; BT-474) was “no change”, the “change in 177Lu-AMBA uptake (GRP-R) … BT-474” value ([1]; drug 0.1-1.0 μM) was “NC (NC: Little(<10%) or no change in Lu-AMBA uptake)” and the “decrease in 177Lu-AMBA binding (GRP receptor specific signal per cell)” value ([2]; PC-3) was 15-25%. For the same substance, the “increase in 177Lu-AMBA binding (GRP receptor specific signal per cell)” value ([3]; T-47D) was “up to 15%”.

In the case of lapatinib, the “decrease in cell proliferation” value ([1]; BT-474, highest concentration) is reported as at most 65%, the “increase in 177Lu-AMBA binding (GRP receptor specific signal per cell)” value ([1]; BT-474, relative to untreated control, drug 0.1-1.0 μM (β2-estradiol 1 nM)) is reported as “up to 140%” and the change in proliferation ([2]; PC-3, 0.1-1.0 μM) is reported as “no change”. The “change … per cell (177Lu-AMBA binding)” value ([2]; PC-3, drug 0.1-1.0 μM (4-OH Tamoxifen 0.001-0.1 μM)) was “no change”, the “change in 177Lu-AMBA uptake (GRP-R) on a viable cell basis, PC-3” value [2, 6] was “NC (NC: Little(<10%) or no change in Lu-AMBA uptake)” and the “decrease in cell proliferation” value ([3]; T-47D, highest concentration) was at most 35%. The “increase in 177Lu-AMBA binding (GRP receptor specific signal per cell)” value ([3]; T-47D) was “up to 50%”.

For sorafenib, the “decrease in 177Lu-AMBA binding (GRP receptor specific signal per cell)” value [1, 5] was 10-25%, the “decrease in 177Lu-AMBA binding (GRP receptor specific signal per cell)” value ([2]; PC-3) was 10-20% and the “change … per cell (177Lu-AMBA binding)” value ([3]; T-47D) was “no change”. For the same substance, the “change in 177Lu-AMBA uptake (GRP-R) on a viable cell basis, T47D” value [3, 6] was “NC (NC: Little(<10%) or no change in Lu-AMBA uptake)”.

In the case of sunitinib, the “decrease in 177Lu-AMBA binding (GRP receptor specific signal per cell)” value [1, 5] is reported as “up to 8%”, the “increase in 177Lu-AMBA binding (GRP receptor specific signal per cell)” value ([2]; PC-3, drug 0.1-1.0 μM) is reported as “up to 10%” and the “increase in 177Lu-AMBA binding (GRP receptor specific signal per cell)” value ([3]; T-47D) is reported as “up to 13%”.

Reference: patent publication US20110250133A1, “GASTRIN […] PEPTIDE COMPOUNDS” (priority 2003, published 2011)
